≈ marks a conversion by molar mass, not a printed value. Read-outs that look alike come from different tables or passages of the source.
What was measured:
Assay type in all cases: cell-based
[1] = tested on: Test Organism 17 (Pseudomonas putida IFO 13696); test: influence of the addition of horse serum on the MIC
[2] = tested on: Test Organism 1 (Escherichia Coli NIHJ); test: as above
[3] = tested on: Test Organism 27 (Streptococcus pneumoniae Type III); test: as above
[4] = tested on: Streptococcus pyogenes IID Cook; test: antimicrobial activity, serial dilution method on agar plate
Procedure, shortened: (§1)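 Reported figure is the lowest compound level (mcg/ml) inhibiting growth on Heart Infusion agar in a serial plate dilution. Suspensions of 1×10^8 and 1×10^6 cells/ml served as inocula.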

[5] = tested on: Streptococcus pneumoniae Type III; test: as above
Procedure, shortened: as §1

[6] = tested on: Streptococcus pneumoniae Type II; test: as above
Procedure, shortened: as §1

[7] = tested on: Escherichia Coli NIHJ JC-2 (IFO 12734); test: as above; conditions: Escherichia coli, read-out: Minimum Inhibitory Concentration
Procedure, shortened: as §1

[8] = tested on: Klebsiella pneumoniae ST-101; test: as above
Procedure, shortened: as §1

[9] = tested on: Proteus morganii IID Kono; test: as above; conditions: Morganella morganii
Procedure, shortened: as §1

[10] = tested on: Bacillus subtilis PCI 219; test: as above
Procedure, shortened: as §1

[11] = tested on: Pseudomonas aeruginosa ATCC 10145; test: as above
Procedure, shortened: as §1

[12] = tested on: Test Organism 21 (Bacillus subtilis PCI 219); test: influence of the addition of horse serum on the MIC
[13] = tested on: Aeromonas hydrophila IFO 12658; test: antimicrobial activity on bacteria which cause infectious diseases in fish
Method: (§2) The antimicrobial activity of the following test compounds on various test organisms listed below was determined by the serial dilution method on agar plate (Heart Infusion agar produced by Difco Co.) (see CHEMOTHERAPY 22, pp. 1126-1128 (1974)), and the minimum inhibitory concentrations (mcg/ml) obtained are shown in Table 1 below.
(§3) A sample of each test organism was prepared so that the population of the organism was 1×10^8 cells/ml (O.D. 660 mμ=0.07 to 0.16) and 1×10^6 cells/ml (which was obtained by diluting the above 1×10^8 cells/ml preparation).
(§4) In the same manner as above, the antimicrobial activity of the following compounds on various test organisms which cause infectious diseases in fish was determined.

[14] = tested on: Aeromonas salmonicida IFO 12659; test: as above
Method: as §2, §3, §4

[15] = tested on: Aeromonas hydrophila IFO 12981; test: as above
Method: as §2, §3, §4

[16] = tested on: Aeromonas salmonicida IFO 12718; test: as above
Method: as §2, §3, §4

[17] = tested on: Pseudomonas fluorescens IFO 12568; test: as above
Method: as §2, §3, §4

[18] = tested on: Vibrio anguillarum IFO 13266; test: as above
Method: as §2, §3, §4

[19] = tested on: Pseudomonas fluorescens IFO 12180; test: as above; conditions: IFO12180, read-out: Minimum Inhibitory Concentration
Method: as §2, §3, §4

[20] = tested on: Vibrio anguillarum IFO 12710; test: as above
Method: as §2, §3, §4

[21] = tested on: Test Organism 16 (Pseudomonas maltophilia IFO 12692); test: influence of the addition of horse serum on the MIC; conditions: Stenotrophomonas maltophilia
[22] = tested on: Yersinia enterocolitica 0-5; test: antimicrobial activity, serial dilution method on agar plate
[23] = read-out: Minimum Inhibitory Concentration, horse serum 0%, inoculum 10^6
[24] = read-out: Minimum Inhibitory Concentration, horse serum 0%, inoculum 10^8
[25] = read-out: Minimum Inhibitory Concentration, horse serum 10%, inoculum 10^6
[26] = read-out: Minimum Inhibitory Concentration, horse serum 10%, inoculum 10^8
[27] = read-out: Minimum Inhibitory Concentration, horse serum 20%, inoculum 10^6
[28] = read-out: Minimum Inhibitory Concentration, horse serum 20%, inoculum 10^8
[29] = read-out: Minimum Inhibitory Concentration, horse serum 40%, inoculum 10^6
[30] = read-out: Minimum Inhibitory Concentration, horse serum 40%, inoculum 10^8
[31] = read-out: Minimum Inhibitory Concentration, inoculum 1 × 10^6 cells/ml
[32] = read-out: Minimum Inhibitory Concentration, inoculum 1 × 10^8 cells/ml

CC1Cc2c(N3CCNCC3)ccc3c(=O)c(C(=O)O)cn1c23 (stereo not drawn) [C]
MIC ([1]; IFO13696, read-out: Minimum Inhibitory Concentration, horse serum 0%, inoculum 10^6): 0.4 µg/mL (≈ 1.28 µM) | MIC ([1]; IFO13696, read-out: Minimum Inhibitory Concentration, horse serum 0%, inoculum 10^8): 0.8 µg/mL (≈ 2.55 µM) | MIC ([1]; IFO13696, read-out: Minimum Inhibitory Concentration, horse serum 10%, inoculum 10^6): 0.4 µg/mL (≈ 1.28 µM) | MIC ([1]; IFO13696, read-out: Minimum Inhibitory Concentration, horse serum 10%, inoculum 10^8): 0.8 µg/mL (≈ 2.55 µM) | MIC ([1]; IFO13696, read-out: Minimum Inhibitory Concentration, horse serum 20%, inoculum 10^6): 0.4 µg/mL (≈ 1.28 µM) | MIC ([1]; IFO13696, read-out: Minimum Inhibitory Concentration, horse serum 20%, inoculum 10^8): 0.8 µg/mL (≈ 2.55 µM) | MIC ([1]; IFO13696, read-out: Minimum Inhibitory Concentration, horse serum 40%, inoculum 10^6): 0.4 µg/mL (≈ 1.28 µM) | MIC ([1]; IFO13696, read-out: Minimum Inhibitory Concentration, horse serum 40%, inoculum 10^8): 0.4 µg/mL (≈ 1.28 µM) | MIC [2, 23]: 12.5 µg/mL (≈ 39.9 µM) | MIC [2, 24]: 12.5 µg/mL (≈ 39.9 µM) | MIC [2, 25]: 6.3 µg/mL (≈ 20.1 µM) | MIC [2, 26]: 12.5 µg/mL (≈ 39.9 µM) | MIC [2, 27]: 6.3 µg/mL (≈ 20.1 µM) | MIC [2, 28]: 12.5 µg/mL (≈ 39.9 µM) | MIC [2, 29]: 6.3 µg/mL (≈ 20.1 µM) | MIC [2, 30]: 12.5 µg/mL (≈ 39.9 µM) | MIC [3, 23]: 3.1 µg/mL (≈ 9.89 µM) | MIC [3, 24]: 6.3 µg/mL (≈ 20.1 µM) | MIC [3, 25]: 3.1 µg/mL (≈ 9.89 µM) | MIC [3, 26]: 6.3 µg/mL (≈ 20.1 µM) | MIC [3, 27]: 3.1 µg/mL (≈ 9.89 µM) | MIC [3, 28]: 3.1 µg/mL (≈ 9.89 µM) | MIC [3, 29]: 1.6 µg/mL (≈ 5.11 µM) | MIC [3, 30]: 3.1 µg/mL (≈ 9.89 µM) | MIC [4, 31]: 25 µg/mL (≈ 79.8 µM) | MIC [4, 32]: 50 µg/mL (≈ 160 µM) | MIC [5, 31]: 50 µg/mL (≈ 160 µM) | MIC [5, 32]: 100 µg/mL (≈ 319 µM) | MIC [6, 31]: 50 µg/mL (≈ 160 µM) | MIC [6, 32]: 100 µg/mL (≈ 319 µM) | MIC [7]: 1.6 µg/mL (≈ 5.11 µM) | MIC ([8]; ST101, read-out: Minimum Inhibitory Concentration, inoculum 1 × 10^6 cells/ml): 0.2 µg/mL (≈ 0.638 µM) | MIC ([8]; ST101, read-out: Minimum Inhibitory Concentration, inoculum 1 × 10^8 cells/ml): 0.8 µg/mL (≈ 2.55 µM) | MIC [9, 31]: 3.1 µg/mL (≈ 9.89 µM) | MIC [9, 32]: 3.1 µg/mL (≈ 9.89 µM) | MIC ([10]; PCI219, read-out: Minimum Inhibitory Concentration, inoculum 1 × 10^6 cells/ml): 3.1 µg/mL (≈ 9.89 µM) | MIC ([10]; PCI219, read-out: Minimum Inhibitory Concentration, inoculum 1 × 10^8 cells/ml): 3.1 µg/mL (≈ 9.89 µM) | MIC ([11]; ATCC10145, read-out: Minimum Inhibitory Concentration, inoculum 1 × 10^6 cells/ml): 6.3 µg/mL (≈ 20.1 µM) | MIC ([11]; ATCC10145, read-out: Minimum Inhibitory Concentration, inoculum 1 × 10^8 cells/ml): 6.3 µg/mL (≈ 20.1 µM) | MIC [12, 23]: 1.6 µg/mL (≈ 5.11 µM) | MIC [12, 24]: 3.1 µg/mL (≈ 9.89 µM) | MIC [12, 25]: 1.6 µg/mL (≈ 5.11 µM) | MIC [12, 26]: 1.6 µg/mL (≈ 5.11 µM) | MIC [12, 27]: 1.6 µg/mL (≈ 5.11 µM) | MIC [12, 28]: 1.6 µg/mL (≈ 5.11 µM) | MIC [12, 29]: 0.4 µg/mL (≈ 1.28 µM) | MIC [12, 30]: 0.4 µg/mL (≈ 1.28 µM) | MIC ([13]; IFO12658, inoculum 10^6, read-out: Minimum Inhibitory Concentration): 0.2 µg/mL (≈ 0.638 µM) | MIC ([13]; IFO12658, inoculum 10^8, read-out: Minimum Inhibitory Concentration): 0.4 µg/mL (≈ 1.28 µM) | MIC ([14]; IFO12659, inoculum 10^6, read-out: Minimum Inhibitory Concentration): 0.2 µg/mL (≈ 0.638 µM) | MIC ([14]; IFO12659, inoculum 10^8, read-out: Minimum Inhibitory Concentration): 0.4 µg/mL (≈ 1.28 µM) | MIC ([15]; IFO12981, inoculum 10^6, read-out: Minimum Inhibitory Concentration): 0.2 µg/mL (≈ 0.638 µM) | MIC ([15]; IFO12981, inoculum 10^8, read-out: Minimum Inhibitory Concentration): 0.4 µg/mL (≈ 1.28 µM) | MIC ([16]; IFO12718, inoculum 10^6, read-out: Minimum Inhibitory Concentration): 0.4 µg/mL (≈ 1.28 µM) | MIC ([16]; IFO12718, inoculum 10^8, read-out: Minimum Inhibitory Concentration): 0.4 µg/mL (≈ 1.28 µM) | MIC ([17]; IFO12568, read-out: Minimum Inhibitory Concentration, inoculum 10^6): 25 µg/mL (≈ 79.8 µM) | MIC ([17]; IFO12568, read-out: Minimum Inhibitory Concentration, inoculum 10^8): 50 µg/mL (≈ 160 µM) | MIC ([18]; IFO13266, read-out: Minimum Inhibitory Concentration, inoculum 10^6): 0.2 µg/mL (≈ 0.638 µM) | MIC ([18]; IFO13266, read-out: Minimum Inhibitory Concentration, inoculum 10^8): 0.4 µg/mL (≈ 1.28 µM) | MIC [19]: 3.1 µg/mL (≈ 9.89 µM) | MIC ([20]; IFO12710, read-out: Minimum Inhibitory Concentration, inoculum 10^6): 1.6 µg/mL (≈ 5.11 µM) | MIC ([20]; IFO12710, read-out: Minimum Inhibitory Concentration, inoculum 10^8): 3.1 µg/mL (≈ 9.89 µM) | MIC ([21]; IFO12692, read-out: Minimum Inhibitory Concentration, horse serum 0%, inoculum 10^6): 1.6 µg/mL (≈ 5.11 µM) | MIC ([21]; IFO12692, read-out: Minimum Inhibitory Concentration, horse serum 0%, inoculum 10^8): 1.6 µg/mL (≈ 5.11 µM) | MIC ([21]; IFO12692, read-out: Minimum Inhibitory Concentration, horse serum 10%, inoculum 10^6): 1.6 µg/mL (≈ 5.11 µM) | MIC ([21]; IFO12692, read-out: Minimum Inhibitory Concentration, horse serum 10%, inoculum 10^8): 1.6 µg/mL (≈ 5.11 µM) | MIC ([21]; IFO12692, read-out: Minimum Inhibitory Concentration, horse serum 20%, inoculum 10^6): 0.4 µg/mL (≈ 1.28 µM) | MIC ([21]; IFO12692, read-out: Minimum Inhibitory Concentration, horse serum 20%, inoculum 10^8): 0.8 µg/mL (≈ 2.55 µM) | MIC ([21]; IFO12692, read-out: Minimum Inhibitory Concentration, horse serum 40%, inoculum 10^6): 0.4 µg/mL (≈ 1.28 µM) | MIC ([21]; IFO12692, read-out: Minimum Inhibitory Concentration, horse serum 40%, inoculum 10^8): 0.4 µg/mL (≈ 1.28 µM) | MIC ([22]; Yersinia enterocolitica, 05, read-out: Minimum Inhibitory Concentration, inoculum 1 × 10^6 cells/ml): 1.6 µg/mL (≈ 5.11 µM) | MIC ([22]; Yersinia enterocolitica, 05, read-out: Minimum Inhibitory Concentration, inoculum 1 × 10^8 cells/ml): 1.6 µg/mL (≈ 5.11 µM)

From patent US4416884A, “Piperazinylbenzoheterocyclic compounds” (Otsuka Pharmaceutical Co., Ltd., priority 1978, dated 1983)
